This note sets out measurements from PubChem BioAssay AID743300 (The Scripps Research Institute Molecular Screening Center, 2014).

SMILES strings stand for the structures.

The assay concerns the target methionyl-tRNA synthetase (Trypanosoma brucei brucei). The experiment in a line: T. brucei MetRS inhibitors, late-stage follow-up, biochemical, luminescence, dose response, round 2 (AID 743300). As to conditions: T. brucei MetRS enzyme, luminescence read-out.

With `CCN(CC)C(=O)C(=O)c1cn(CC(=O)Nc2cccc(C(F)(F)F)c2)c2ccccc12`, the IC50 was 99.5 nM.
